# Data as given in ChEMBL document CHEMBL1144600, “Efficient synthesis and biological evaluation of omega-oxygenated analogues of vitamin K2: study of modification and structure-activity relationship of vitamin K2 metabolites” (2007).
# Calls of active or inactive are those of the source. The rule behind the calls is not given here.
# Tested on: HL-60
# Test: Apoptosis inducing activity in human HL60 cells at 10 uM after 74 hrs
# Type: functional
row,Compound,Activity
1,CC1=C(C/C=C(\C)CC/C=C(\C)CC/C=C(\C)CC/C=C(\C)C=O)C(=O)c2ccccc2C1=O,inactive
2,CC1=C(C/C=C(\C)CC/C=C(\C)CO)C(=O)c2ccccc2C1=O,inactive
3,CC1=C(C/C=C(\C)CC/C=C(\C)CC/C=C(\C)C=O)C(=O)c2ccccc2C1=O,inactive
4,CC1=C(C/C=C(\C)CC/C=C(\C)C=O)C(=O)c2ccccc2C1=O,inactive
5,CC1=C(C/C=C(\C)CC/C=C(\C)CC/C=C(\C)CC/C=C(\C)CO)C(=O)c2ccccc2C1=O,15%
6,CC1=C(C/C=C(\C)CC/C=C(\C)CC/C=C(\C)CO)C(=O)c2ccccc2C1=O,75%
